Measured values: paper PMC3674995, “Safety, Pharmacokinetic, and Efficacy Studies of Oral DB868 in a First Stage Vervet Monkey Model of Human African Trypanosomiasis” (PLoS Neglected Tropical Diseases, 2013)
Entries after “also recorded” stand apart in the source; their conditions may differ.

What was measured:
[1] = system: T. b. rhodesiense KETRI 2537; test: Efficacy in first stage HAT vervet monkey model; format: in vivo
Description: Monkeys that were deemed as treatment failures/relapses or developed severe adverse clinical signs as defined in the protocol (e.g., inability or reluctance to perch, less than ¼ of normal daily feed intake for 2–3 consecutive days) were immediately withdrawn from the study and humanely euthanized for post-mortem examination. These monkeys were euthanized by intravenous administration of 20% (w/v) pentobarbitone sodium solution (150 mg/kg body weight; Euthatal; Rhône-Mérieux, United Kingdom).

[2] = system: T. b. brucei s427 trypanosomes; design: method as in PMID 21402852; conditions: 3.2 µM; cited from earlier work

| time to clearance of trypanosomes from peripheral blood ([1]; monkey, in vivo, im, 4 mg/kg) [days] | SMILES | Trypanosomes blood/CSF at EoT ([1]; intramuscular 4 mg/kg×7 days from 7 DPI, monkeys 651, 541, 672) | Final efficacy assesment ([1]; intramuscular 4 mg/kg×7 days, monkeys 651, 541, 672) | exposure required to kill trypanosomes in culture [2] [h] |
| --- | --- | --- | --- | --- |
| 2 | N=C(N)c1ccc(OCCCCCOc2ccc(C(=N)N)cc2)cc1 [Pentamidine, reference compound] | Pos and Neg | Not cured; also recorded: Cured | – |
| – | N=C(N)c1ccc(-c2ccc(-c3ccc(C(=N)N)cc3)o2)cc1 [furamidine, 2,5-bis(4-amidinophenyl)furan, reference compound] | – | – | 1 |
